Source: ChEMBL document CHEMBL3045163, “Synthesis of benzothiazole derivatives having acetamido and carbothioamido pharmacophore as anticonvulsant agents” (Med Chem Res, 2012)
The source made the active and inactive calls. The rule behind the calls is not given here.

Key:
Mus musculus [1] = experiment: Anticonvulsant activity in Mus musculus (mouse) assessed as protection against subcutaneous pentylenetetrazole-induced seizure at 300 mg/kg, ip after 4 hr; assay type: functional, organism-based; set-up: dose 300 mg/kg
Mus musculus [2] = experiment: Neurotoxicity in Mus musculus (mouse) assessed as motor impairment at 300 mg/kg, ip after 0.5 hr by rotorod test; assay type: toxicity, organism-based; set-up: dose 300 mg/kg, route intraperitoneal; conditions: in vivo
Mus musculus [3] = experiment: Antidepressant activity in Mus musculus (mouse) assessed as immobility time at 100 mg/kg, ip administered 60 min before test measured during last 4 min of 6 min testing period; assay type: functional; conditions: route intraperitoneal
Mus musculus [4] = experiment: Anticonvulsant activity in ip dosed Mus musculus (mouse) assessed as protection against maximal electroshock-induced seizure after 0.5 hr; assay type: functional; conditions: read-out: MED
Mus musculus [5] = experiment: Anticonvulsant activity in Mus musculus (mouse) assessed as protection against maximal electroshock-induced seizure at 300 mg/kg, ip after 4 hr; assay type: functional, organism-based; set-up: dose 300 mg/kg
Mus musculus [6] = experiment: Neurotoxicity in ip dosed Mus musculus (mouse) assessed as motor impairment after 4 hr by rotorod test; assay type: toxicity, organism-based; conditions: in vivo
Mus musculus [7] = experiment: Anticonvulsant activity in Mus musculus (mouse) assessed as protection against subcutaneous pentylenetetrazole-induced seizure at 300 mg/kg, ip after 0.5 hr; assay type: functional, organism-based; set-up: dose 300 mg/kg
[8] = Octanol-phosphate buffer partition coefficient, log P of the compound; assay type: physicochemical
Mus musculus [9] = experiment: Anticonvulsant activity in Mus musculus (mouse) assessed as protection against maximal electroshock-induced seizure at 300 mg/kg, ip after 0.5 hr; assay type: functional, organism-based; set-up: dose 300 mg/kg
Mus musculus [10] = experiment: Neurotoxicity in ip dosed Mus musculus (mouse) assessed as motor impairment after 0.5 hr by rotorod test; assay type: toxicity, organism-based; conditions: in vivo
Mus musculus [11] = experiment: Anticonvulsant activity in ip dosed Mus musculus (mouse) assessed as protection against maximal electroshock-induced seizure after 4 hr; assay type: functional; conditions: read-out: MED
Mus musculus [12] = experiment: Anticonvulsant activity in ip dosed Mus musculus (mouse) assessed as protection against subcutaneous pentylenetetrazole-induced seizure after 4 hr; assay type: functional; conditions: read-out: MED
Mus musculus [13] = experiment: Anticonvulsant activity in ip dosed Mus musculus (mouse) assessed as protection against subcutaneous pentylenetetrazole-induced seizure after 0.5 hr; assay type: functional; conditions: read-out: MED
Mus musculus [14] = experiment: Neurotoxicity in Mus musculus (mouse) assessed as motor impairment at 300 mg/kg, ip after 4 hr by rotorod test; assay type: toxicity, organism-based; set-up: dose 300 mg/kg, route intraperitoneal; conditions: in vivo

With O=C(CNc1ccc(Cl)cc1)Nc1nc2ccc(Cl)cc2s1 the Activity (Mus musculus [1]) was “inactive”, the Activity (Mus musculus [2]) was “Non-toxic” and the Time (Mus musculus [3]) was 161 s. For the same compound, the minimal effective dose (Mus musculus [4]) was 100 mg/kg, the Activity (Mus musculus [5]) was “inactive” and the MED (Mus musculus [6]) was 100 mg/kg. For the same compound, the Activity (Mus musculus [7]) was “inactive” and the logP [8] was 4.24.

With S=C(N/N=C/c1ccccc1)Nc1nc2ccc(Cl)cc2s1 the Activity (Mus musculus [1]) was “inactive”, the Activity (Mus musculus [9]) was “inactive” and the MED (Mus musculus [10]) was 300 mg/kg. For the same compound, the Time (Mus musculus [3]) was 162 s, the MED (Mus musculus [6]) was 300 mg/kg and the Activity (Mus musculus [7]) was “inactive”. It also gave a minimal effective dose (Mus musculus [11]) of 300 mg/kg and a logP [8] of 4.86.

With CN(C)c1ccc(/C=N/NC(=S)Nc2nc3ccc(Cl)cc3s2)cc1 the Activity (Mus musculus [1]) was “inactive”, the Activity (Mus musculus [9]) was “inactive” and the MED (Mus musculus [10]) was 100 mg/kg. The Time (Mus musculus [3]) was 172 s, the Activity (Mus musculus [5]) was “inactive” and the MED (Mus musculus [6]) was 100 mg/kg. The Activity (Mus musculus [7]) was “inactive” and the logP [8] was 5.24.

For O=C1NC(=O)C(c2ccccc2)(c2ccccc2)N1 [PHENYTOIN], the Activity (Mus musculus [1]) was “inactive”, the MED (Mus musculus [10]) was 100 mg/kg and the minimal effective dose (Mus musculus [4]) was 30 mg/kg. For the same compound, the MED (Mus musculus [6]) was 100 mg/kg, the Activity (Mus musculus [7]) was “inactive” and the minimal effective dose (Mus musculus [11]) was 30 mg/kg.

Work on Fc1ccc(/C=N/NC(=S)Nc2nc3ccc(Cl)cc3s2)cc1 yielded an MED (Mus musculus [10]) of 100 mg/kg, a Time (Mus musculus [3]) of 188 s and a minimal effective dose (Mus musculus [12]) of 100 mg/kg. The minimal effective dose (Mus musculus [4]) was 30 mg/kg, the MED (Mus musculus [6]) was 100 mg/kg and the minimal effective dose (Mus musculus [11]) was 30 mg/kg. The logP [8] was 5.22 and the minimal effective dose (Mus musculus [13]) was 100 mg/kg.

For COc1ccc(/C=N/NC(=S)Nc2nc3ccc(Cl)cc3s2)cc1, the Activity (Mus musculus [1]) was “inactive”, the Activity (Mus musculus [9]) was “inactive” and the MED (Mus musculus [10]) was 100 mg/kg. For the same compound, the Time (Mus musculus [3]) was 181 s, the MED (Mus musculus [6]) was 300 mg/kg and the Activity (Mus musculus [7]) was “inactive”. The minimal effective dose (Mus musculus [11]) was 300 mg/kg and the logP [8] was 5.16.

With S=C(N/N=C/c1ccc(Cl)cc1)Nc1nc2ccc(Cl)cc2s1 the Activity (Mus musculus [1]) was “inactive”, the MED (Mus musculus [10]) was 300 mg/kg and the Time (Mus musculus [3]) was 191 s. For the same compound, the minimal effective dose (Mus musculus [4]) was 300 mg/kg, the Activity (Mus musculus [5]) was “inactive” and the Activity (Mus musculus [7]) was “inactive”. The Activity (Mus musculus [14]) was “Non-toxic” and the logP [8] was 5.52.

For O=C(CN(c1ccccc1)c1ccccc1)Nc1nc2ccc(Cl)cc2s1, the Activity (Mus musculus [1]) was “inactive”, the MED (Mus musculus [10]) was 300 mg/kg and the Time (Mus musculus [3]) was 196 s. The minimal effective dose (Mus musculus [4]) was 300 mg/kg, the Activity (Mus musculus [5]) was “inactive” and the Activity (Mus musculus [7]) was “inactive”. The Activity (Mus musculus [14]) was “Non-toxic” and the logP [8] was 6.12.

With O=C(Cn1ccc2ccccc21)Nc1nc2ccc(Cl)cc2s1 the MED (Mus musculus [10]) was 100 mg/kg, the Time (Mus musculus [3]) was 152 s and the minimal effective dose (Mus musculus [12]) was 300 mg/kg. The minimal effective dose (Mus musculus [4]) was 100 mg/kg, the MED (Mus musculus [6]) was 300 mg/kg and the Activity (Mus musculus [7]) was “inactive”. It also gave a minimal effective dose (Mus musculus [11]) of 300 mg/kg and a logP [8] of 4.62.

For CC(C)(C)NCC(=O)Nc1nc2ccc(Cl)cc2s1, the Activity (Mus musculus [2]) was “Non-toxic”, the Time (Mus musculus [3]) was 129 s and the minimal effective dose (Mus musculus [12]) was 300 mg/kg. The minimal effective dose (Mus musculus [4]) was 30 mg/kg, the MED (Mus musculus [6]) was 300 mg/kg and the minimal effective dose (Mus musculus [11]) was 100 mg/kg. For the same compound, the logP [8] was 3.02 and the minimal effective dose (Mus musculus [13]) was 100 mg/kg.

O=[N+]([O-])c1ccc(/C=N/NC(=S)Nc2nc3ccc(Cl)cc3s2)cc1 showed an MED (Mus musculus [10]) of 300 mg/kg, a Time (Mus musculus [3]) of 157 s and a minimal effective dose (Mus musculus [12]) of 300 mg/kg. For the same compound, the minimal effective dose (Mus musculus [4]) was 100 mg/kg, the Activity (Mus musculus [5]) was “inactive” and the MED (Mus musculus [6]) was 300 mg/kg. For the same compound, the logP [8] was 4.68 and the minimal effective dose (Mus musculus [13]) was 300 mg/kg.

With O=C(CNc1ccc(F)cc1)Nc1nc2ccc(Cl)cc2s1 the Activity (Mus musculus [2]) was “Non-toxic”, the Time (Mus musculus [3]) was 169 s and the minimal effective dose (Mus musculus [12]) was 300 mg/kg. For the same compound, the minimal effective dose (Mus musculus [4]) was 100 mg/kg, the Activity (Mus musculus [14]) was “Non-toxic” and the minimal effective dose (Mus musculus [11]) was 100 mg/kg. For the same compound, the logP [8] was 3.88 and the minimal effective dose (Mus musculus [13]) was 100 mg/kg.

For Oc1ccc(/C=N/NC(=S)Nc2nc3ccc(Cl)cc3s2)cc1, the Activity (Mus musculus [1]) was “inactive”, the Activity (Mus musculus [2]) was “Non-toxic” and the Time (Mus musculus [3]) was 169 s. For the same compound, the minimal effective dose (Mus musculus [4]) was 100 mg/kg, the Activity (Mus musculus [5]) was “inactive” and the MED (Mus musculus [6]) was 100 mg/kg. The logP [8] was 4.78 and the minimal effective dose (Mus musculus [13]) was 100 mg/kg.

With S=C(N/N=C/c1ccccc1Cl)Nc1nc2ccc(Cl)cc2s1 the Activity (Mus musculus [1]) was “inactive”, the Activity (Mus musculus [2]) was “Non-toxic” and the Time (Mus musculus [3]) was 177 s. The minimal effective dose (Mus musculus [4]) was 300 mg/kg, the Activity (Mus musculus [5]) was “inactive” and the MED (Mus musculus [6]) was 100 mg/kg. The Activity (Mus musculus [7]) was “inactive” and the logP [8] was 5.46.

In the case of NC(=O)N1c2ccccc2C=Cc2ccccc21 [CARBAMAZEPINE], the MED (Mus musculus [10]) is reported as 100 mg/kg, the Time (Mus musculus [3]) is reported as 179 s and the minimal effective dose (Mus musculus [12]) is reported as 100 mg/kg. The minimal effective dose (Mus musculus [4]) was 30 mg/kg, the MED (Mus musculus [6]) was 300 mg/kg and the minimal effective dose (Mus musculus [11]) was 100 mg/kg. For the same compound, the minimal effective dose (Mus musculus [13]) was 100 mg/kg.

In the case of O=C(Cn1ccnc1)Nc1nc2ccc(Cl)cc2s1, the Activity (Mus musculus [2]) is reported as “Non-toxic”, the Time (Mus musculus [3]) is reported as 137 s and the minimal effective dose (Mus musculus [12]) is reported as 100 mg/kg. The minimal effective dose (Mus musculus [4]) was 30 mg/kg, the Activity (Mus musculus [14]) was “Non-toxic” and the minimal effective dose (Mus musculus [11]) was 30 mg/kg. It also gave a logP [8] of 2.14 and a minimal effective dose (Mus musculus [13]) of 100 mg/kg.

In the case of O=C(CN1CCOCC1)Nc1nc2ccc(Cl)cc2s1, the Activity (Mus musculus [2]) is reported as “Non-toxic”, the Time (Mus musculus [3]) is reported as 140 s and the minimal effective dose (Mus musculus [12]) is reported as 100 mg/kg. The minimal effective dose (Mus musculus [4]) was 30 mg/kg, the Activity (Mus musculus [14]) was “Non-toxic” and the minimal effective dose (Mus musculus [11]) was 30 mg/kg. The logP [8] was 2.32 and the minimal effective dose (Mus musculus [13]) was 100 mg/kg.

For O=C(CN1CCCCC1)Nc1nc2ccc(Cl)cc2s1, the Activity (Mus musculus [1]) was “inactive”, the Activity (Mus musculus [2]) was “Non-toxic” and the Time (Mus musculus [3]) was 145 s. For the same compound, the minimal effective dose (Mus musculus [4]) was 30 mg/kg, the MED (Mus musculus [6]) was 300 mg/kg and the minimal effective dose (Mus musculus [11]) was 100 mg/kg. The logP [8] was 3.16 and the minimal effective dose (Mus musculus [13]) was 100 mg/kg.
